Test results: paper PMC11822212, “High-throughput screening identifies Aurora kinase B as a critical therapeutic target for Merkel cell carcinoma” (Nature Communications, 2025)
Read-outs that look alike come from different tables or passages of the source.

Assays:
CRL-7250 cells = assay: qHTS cell viability (CellTiter-Glo, 72 h; primary screen), control cell line; type: cell-based
MCC26 cells (VN-MCC) = assay: qHTS cell viability (CellTiter-Glo, 72 h; primary and follow-up small molecule screen); type: cell-based, human
[1] = tested on: MCC cell lines (WAGA, MKL-1, MKL-2, MCC13, MCC26, UISO); assay: qHTS cell viability, all six MCC cell lines as a group (mean AUC, MCC.avg); type: cell-based, human
HEK293T cells = assay: qHTS cell viability (CellTiter-Glo, 72 h; primary screen), control cell line; type: cell-based, human
[2] = tested on: VN-MCC cell lines (MCC13, MCC26, UISO); assay: qHTS cell viability, VN-MCC cell lines as a group (mean AUC, VN.MCC.avg); type: cell-based, human
[3] = tested on: six MCC cell lines and four control cell lines; assay: qHTS cell viability, all 10 cell lines screened; type: cell-based
[4] = tested on: VP-MCC cell lines (WAGA, MKL-1, MKL-2); assay: qHTS cell viability, VP-MCC cell lines as a group (mean AUC, VP.MCC.avg); type: cell-based, human
WAGA cells (VP-MCC) = assay: qHTS cell viability (CellTiter-Glo, 72 h; primary and follow-up small molecule screen); type: cell-based, human
HACAT cells = assay: qHTS cell viability (CellTiter-Glo, 72 h; primary screen), control cell line; type: cell-based, human
MCC13 cells (VN-MCC) = assay: qHTS cell viability (CellTiter-Glo, 72 h; primary and follow-up small molecule screen); type: cell-based, human
MKL-2 cells (VP-MCC) = assay: as above; type: cell-based, human
[5] = tested on: control cell lines (HACAT, HEK293T, CRL-7250, NIH-3T3); assay: qHTS cell viability, control cell lines as a group (mean AUC, Control.avg); type: cell-based
NIH-3T3 cells = assay: qHTS cell viability (CellTiter-Glo, 72 h; primary screen), control cell line; type: cell-based, mouse
MKL-1 cells (VP-MCC) = assay: qHTS cell viability (CellTiter-Glo, 72 h; primary and follow-up small molecule screen); type: cell-based, human
UISO cells (VN-MCC) = assay: as above; type: cell-based, human
[6] = NPC library, qHTS dose-response AUC, CRL7250 control
[7] = NPC library, qHTS dose-response AUC, MCC26
[8] = NPC library, mean AUC of six MCC cell lines
[9] = NPC library, qHTS dose-response AUC, HEK293T control
[10] = NPC library, mean AUC of VN-MCC cell lines
[11] = NPC library, therapeutic window: Control avg AUC minus VN-MCC avg AUC
[12] = NPC library, therapeutic window: Control avg AUC minus MCC avg AUC
[13] = NPC library, mean AUC of VP-MCC cell lines
[14] = NPC library, therapeutic window: Control avg AUC minus VP-MCC avg AUC
[15] = NPC library, qHTS dose-response AUC, WAGA
[16] = NPC library, qHTS dose-response AUC, HACAT control
[17] = NPC library, qHTS dose-response AUC, MCC13
[18] = NPC library, qHTS dose-response AUC, MKL2
[19] = NPC library, mean AUC of control cell lines
[20] = NPC library, qHTS dose-response AUC, NIH3T3 control
[21] = NPC library, qHTS dose-response AUC, MKL1
[22] = NPC library, qHTS dose-response AUC, UISO
[23] = MIPE library, 11-point DRC, control cell line, sheet S2E
[24] = MIPE library, 11-point DRC, sheet S2E

COc1cc(/C=C2\CCC/C(=C\c3ccc(O)c(OC)c3)C2=O)ccc1O [Cyclovalone]
CRL7250_AUC (CRL-7250 cells; [6]): 455.387 | MCC26_AUC (MCC26 cells (VN-MCC); [7]): 456.812 | Area under the dose-response curve (AUC) MCC26 Replicate 1 (MCC26 cells (VN-MCC); follow-up screen, MCC26, replicate 1): 446.8 | Area under the dose-response curve (AUC) MCC26 Replicate 2 (MCC26 cells (VN-MCC); follow-up screen, MCC26, replicate 2): 450.2 | Area under the dose-response curve (AUC) MCC26 Replicate 3 (MCC26 cells (VN-MCC); follow-up screen, MCC26, replicate 3): 451.9 | MCC_Avg_AUC [1, 8]: 409.645 | HEK293T_AUC (HEK293T cells; [9]): 422.832 | VN-MCC_Avg_AUC [2, 10]: 437.803 | Control-VN-MCC [2, 11]: 3.833 | Control-MCC [3, 12]: 31.9905 | VP-MCC_Avg_AUC [4, 13]: 381.488 | Control-VP-MCC [4, 14]: 60.1479 | WAGA_AUC (WAGA cells (VP-MCC); [15]): 394.525 | Area under the dose-response curve (AUC) WAGA Replicate 1 (WAGA cells (VP-MCC); follow-up screen, WAGA, replicate 1): 469.4 | Area under the dose-response curve (AUC) WAGA Replicate 2 (WAGA cells (VP-MCC); follow-up screen, WAGA, replicate 2): 402.6 | Area under the dose-response curve (AUC) WAGA Replicate 3 (WAGA cells (VP-MCC); follow-up screen, WAGA, replicate 3): 413.8 | HACAT_AUC (HACAT cells; [16]): 441.291 | MCC13_AUC (MCC13 cells (VN-MCC); [17]): 435.637 | Area under the dose-response curve (AUC) MCC13 Replicate 1 (MCC13 cells (VN-MCC); follow-up screen, MCC13, replicate 1): 472.8 | Area under the dose-response curve (AUC) MCC13 Replicate 2 (MCC13 cells (VN-MCC); follow-up screen, MCC13, replicate 2): 478.9 | Area under the dose-response curve (AUC) MCC13 Replicate 3 (MCC13 cells (VN-MCC); follow-up screen, MCC13, replicate 3): 414.2 | MKL2_AUC (MKL-2 cells (VP-MCC); [18]): 366.589 | Area under the dose-response curve (AUC) MKL-2 Replicate 1 (MKL-2 cells (VP-MCC); follow-up screen, MKL-2, replicate 1): 366.1 | Area under the dose-response curve (AUC) MKL-2 Replicate 2 (MKL-2 cells (VP-MCC); follow-up screen, MKL-2, replicate 2): 391.5 | Area under the dose-response curve (AUC) MKL-2 Replicate 3 (MKL-2 cells (VP-MCC); follow-up screen, MKL-2, replicate 3): 417.0 | Control_Avg_AUC [5, 19]: 441.636 | NIH3T3_AUC (NIH-3T3 cells; [20]): 447.034 | MKL1_AUC (MKL-1 cells (VP-MCC); [21]): 383.35 | Area under the dose-response curve (AUC) MKL-1 Replicate 1 (MKL-1 cells (VP-MCC); follow-up screen, MKL-1, replicate 1): 414.7 | Area under the dose-response curve (AUC) MKL-1 Replicate 2 (MKL-1 cells (VP-MCC); follow-up screen, MKL-1, replicate 2): 411.0 | Area under the dose-response curve (AUC) MKL-1 Replicate 3 (MKL-1 cells (VP-MCC); follow-up screen, MKL-1, replicate 3): 407.6 | UISO_AUC (UISO cells (VN-MCC); [22]): 420.96 | Area under the dose-response curve (AUC) UISO Replicate 1 (UISO cells (VN-MCC); follow-up screen, UISO, replicate 1): 445.7 | Area under the dose-response curve (AUC) UISO Replicate 2 (UISO cells (VN-MCC); follow-up screen, UISO, replicate 2): 433.0 | Area under the dose-response curve (AUC) UISO Replicate 3 (UISO cells (VN-MCC); follow-up screen, UISO, replicate 3): 430.4

CCNC(=O)Nc1ccc2ncc(Nc3ccc(C)cc3)nc2n1 [D-106669]
CRL7250_AUC (CRL-7250 cells; [23]): 461.458 | MCC26_AUC (MCC26 cells (VN-MCC); [24]): 446.547 | MCC_Avg_AUC ([1]; MIPE library, mean AUC of six MCC cell lines, sheet S2E): 419.775 | HEK293T_AUC (HEK293T cells; [23]): 479.506 | Control-VN-MCC ([2]; MIPE library, Control AUC minus VN-MCC AUC (therapeutic window), sheet S2E): 41.7531 | VN-MCC_Avg_AUC ([2]; MIPE library, mean AUC of VN-MCC cell lines, sheet S2E): 429.061 | Control-MCC ([3]; MIPE library, Control AUC minus MCC AUC (therapeutic window), sheet S2E): 51.0396 | Control-VP-MCC ([4]; MIPE library, Control AUC minus VP-MCC AUC (therapeutic window), sheet S2E): 60.3261 | VP-MCC_Avg_AUC ([4]; MIPE library, mean AUC of VP-MCC cell lines, sheet S2E): 410.488 | WAGA_AUC (WAGA cells (VP-MCC); [24]): 400.326 | HACAT_AUC (HACAT cells; [23]): 474.569 | MCC13_AUC (MCC13 cells (VN-MCC); [24]): 484.886 | MKL2_AUC (MKL-2 cells (VP-MCC); [24]): 431.031 | Control_Avg_AUC ([5]; MIPE library, mean AUC of control cell lines, sheet S2E): 470.814 | NIH3T3_AUC (NIH-3T3 cells; [23]): 467.724 | MKL1_AUC (MKL-1 cells (VP-MCC); [24]): 400.108 | UISO_AUC (UISO cells (VN-MCC); [24]): 355.75

C[C@H](CN1CCOCC1)C(C(=O)N1CCCC1)(c1ccccc1)c1ccccc1.O=C(O)C(O)C(O)C(=O)O [Dextromoramide tartrate]
CRL7250_AUC (CRL-7250 cells): 471.896 | MCC26_AUC (MCC26 cells (VN-MCC)): 445.292 | MCC_Avg_AUC [1]: 418.242 | HEK293T_AUC (HEK293T cells): 429.542 | Control-VN-MCC [2]: 17.1819 | VN-MCC_Avg_AUC [2]: 445.614 | Control-MCC [3]: 44.5539 | Control-VP-MCC [4]: 71.9259 | VP-MCC_Avg_AUC [4]: 390.87 | WAGA_AUC (WAGA cells (VP-MCC)): 399.942 | HACAT_AUC (HACAT cells): 472.266 | MCC13_AUC (MCC13 cells (VN-MCC)): 446.289 | MKL2_AUC (MKL-2 cells (VP-MCC)): 383.165 | Control_Avg_AUC [5]: 462.795 | NIH3T3_AUC (NIH-3T3 cells): 477.478 | MKL1_AUC (MKL-1 cells (VP-MCC)): 389.502 | UISO_AUC (UISO cells (VN-MCC)): 445.259

CC[N+](CC)(CC)CCOC(=O)C(C1CCCC1)C1CCCC1 [Diponium bromide]
CRL7250_AUC (CRL-7250 cells; [6]): 487.778 | CRL7250_AUC (CRL-7250 cells; area under the dose-response curve, CRL7250 control cells, AUC<450 = reduced viability): 487.778 | MCC26_AUC (MCC26 cells (VN-MCC); [7]): 499.996 | MCC26_AUC (MCC26 cells (VN-MCC); area under the dose-response curve, MCC26 cells, AUC<450 = reduced viability): 499.996 | MCC_Avg_AUC [1, 8]: 464.549 | HEK293T_AUC (HEK293T cells; [9]): 472.065 | HEK293T_AUC (HEK293T cells; area under the dose-response curve, HEK293T control cells, AUC<450 = reduced viability): 472.065 | VN-MCC_Avg_AUC [2, 10]: 499.413 | Control-VN-MCC [2, 11]: -16.6818 | Control-MCC [3, 12]: 18.183 | VP-MCC_Avg_AUC [4, 13]: 429.684 | Control-VP-MCC [4, 14]: 53.0478 | WAGA_AUC (WAGA cells (VP-MCC); [15]): 427.062 | WAGA_AUC (WAGA cells (VP-MCC); area under the dose-response curve, WAGA cells, AUC<450 = reduced viability): 427.062 | HACAT_AUC (HACAT cells; [16]): 486.819 | HACAT_AUC (HACAT cells; area under the dose-response curve, HACAT control cells, AUC<450 = reduced viability): 486.819 | MCC13_AUC (MCC13 cells (VN-MCC); [17]): 522.801 | MCC13_AUC (MCC13 cells (VN-MCC); area under the dose-response curve, MCC13 cells, AUC<450 = reduced viability): 522.801 | MKL2_AUC (MKL-2 cells (VP-MCC); [18]): 434.115 | MKL2_AUC (MKL-2 cells (VP-MCC); area under the dose-response curve, MKL-2 cells, AUC<450 = reduced viability): 434.115 | Control_Avg_AUC [5, 19]: 482.732 | NIH3T3_AUC (NIH-3T3 cells; [20]): 484.264 | NIH3T3_AUC (NIH-3T3 cells; area under the dose-response curve, NIH3T3 control cells, AUC<450 = reduced viability): 484.264 | MKL1_AUC (MKL-1 cells (VP-MCC); [21]): 427.875 | MKL1_AUC (MKL-1 cells (VP-MCC); area under the dose-response curve, MKL-1 cells, AUC<450 = reduced viability): 427.875 | UISO_AUC (UISO cells (VN-MCC); [22]): 475.444 | UISO_AUC (UISO cells (VN-MCC); area under the dose-response curve, UISO cells, AUC<450 = reduced viability): 475.444
